These results are taken from PMC6934184, “Selective DNA-PKcs inhibition extends the therapeutic index of localized radiotherapy and chemotherapy” (The Journal of Clinical Investigation, 2019).

The test deals with T1, NEK2 (Homo sapiens, UniProt P51955).
T1 construct: purchased Thermo Fisher Scientific (Life Technologies) SelectScreen
Briefly: SelectScreen Z'LYTE. Format: biochemical. The essentials: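 NU5455 was profiled across the SelectScreen Broad panel of kinase activity and binding assays. Z'LYTE reactions such as CSF1R ran at apparent Km ATP, while the Adapta CAMK1 assay used ATP listed as 10. Values are given as percent.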

T1 sequence (P51955 whole entry): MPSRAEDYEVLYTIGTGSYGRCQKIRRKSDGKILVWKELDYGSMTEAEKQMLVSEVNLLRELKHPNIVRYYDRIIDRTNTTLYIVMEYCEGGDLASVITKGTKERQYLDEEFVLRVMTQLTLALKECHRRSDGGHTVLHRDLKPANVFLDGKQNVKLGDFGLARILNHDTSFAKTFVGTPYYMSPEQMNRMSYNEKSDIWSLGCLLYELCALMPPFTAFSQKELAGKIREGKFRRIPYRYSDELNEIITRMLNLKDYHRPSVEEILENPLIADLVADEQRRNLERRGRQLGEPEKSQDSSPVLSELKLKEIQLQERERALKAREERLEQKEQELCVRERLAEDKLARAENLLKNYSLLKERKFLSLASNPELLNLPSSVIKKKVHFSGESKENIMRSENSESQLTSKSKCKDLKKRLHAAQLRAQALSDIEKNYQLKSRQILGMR

By inhibition is commonly meant the share of the control response that was lost under treatment. Low values mean a weak effect, high ones a strong effect. The molecule `CN(C(=O)CN1CCOCC1)c1ccc2sc3c(-c4cccc5c(=O)cc(N6CC7CCC(C6)O7)oc45)cccc3c2c1` [NU5455] returned an inhibition at 1 µM of 17.8%.
